Some test systems named below: U-251; SK-MEL-2; SW-620; SF-295; RXF 393; SK-MEL-5; SK-OV-3; SN12C; SK-MEL-28; HT-29; NCI-H23; OVCAR-8; UACC-62; IGROV-1; MOLT-4; UO-31; HOP-62; OVCAR-5; KM12; CCRF-CEM.
What all share (test): inhibition of tumour cell growth, NCI panel, 48 h

Structures are written as SMILES.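 A five-concentration, 48-hour dose response in 96-well plates underlies each endpoint, interpolated linearly between surrounding concentrations. The concentration for 50% growth inhibition is given as GI50.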 Active and inactive are the calls of the source. Rule as the data show it: active = GI50 up to about 1.1 µM and inactive = higher. Where only a bound is given, the exact number is not on record here.

`NC(S)=Nc1cc(Cl)ccc1Cl`: the GI50 is > 100 µM (inactive) in the assay with U-251; > 100 µM (inactive) in the assay on SK-MEL-2; > 100 µM (inactive) in the assay on SW-620; > 100 µM (inactive) in the assay on SF-295; 94 µM (inactive) with RXF 393; > 100 µM (inactive) in the assay with SK-MEL-5. In addition, the GI50 with SK-OV-3 is > 100 µM (inactive); in the assay with SN12C, > 100 µM (inactive); in the assay with SK-MEL-28 it was > 100 µM (inactive); with HT-29, > 100 µM (inactive); in the assay on NCI-H23, > 100 µM (inactive); in the assay on OVCAR-8, 62.1 µM (inactive). Further, the GI50 in the assay with UACC-62, in the assay with IGROV-1, in the assay with MOLT-4, with UO-31, in the assay on HOP-62 and in the assay with OVCAR-5 was > 100 µM (inactive) in each case. Besides, the GI50 in the assay on KM12 and in the assay with CCRF-CEM was > 100 µM (inactive) throughout.

As to `Cc1ccc(N(O)C(C)(C)C)cc1`, the GI50 with U-251, in the assay with SK-MEL-2, in the assay with SW-620, in the assay with SF-295, with RXF 393 and in the assay with SK-MEL-5 was > 100 µM (inactive) in each case. Moreover, the GI50 in the assay with SK-OV-3, in the assay on SN12C, in the assay with SK-MEL-28, with HT-29, in the assay on NCI-H23 and with OVCAR-8 was > 100 µM (inactive) each time. Further, the GI50 with UACC-62, in the assay on IGROV-1, in the assay on MOLT-4, in the assay with UO-31, in the assay with HOP-62 and in the assay on OVCAR-5 was > 100 µM (inactive) in each case. Moreover, the GI50 in the assay on KM12 and in the assay with CCRF-CEM was > 100 µM (inactive) each time.

Take `CC(=O)/C=C/c1c[nH]c(=O)[nH]c1=O`: the GI50 in the assay with U-251 was 151 µM (inactive); in the assay on SK-MEL-2 it was 197 µM (inactive); in the assay with SW-620, 223 µM (inactive); in the assay on SF-295 it was 304 µM (inactive); with RXF 393, 126 µM (inactive); in the assay on SK-MEL-5, 271 µM (inactive). Further, the GI50 in the assay with SK-OV-3 was 166 µM (inactive); with SN12C, 142 µM (inactive); with SK-MEL-28 it was 190 µM (inactive); in the assay on HT-29, 420 µM (inactive); in the assay on NCI-H23, 257 µM (inactive); in the assay with OVCAR-8, 241 µM (inactive). Moreover, the GI50 is 236 µM (inactive) in the assay on UACC-62; 151 µM (inactive) in the assay on IGROV-1; 179 µM (inactive) in the assay with MOLT-4; 130 µM (inactive) in the assay on UO-31; 303 µM (inactive) with HOP-62; 303 µM (inactive) in the assay on OVCAR-5. Further, the values for the GI50 in the assay with KM12 and in the assay on CCRF-CEM were 187 µM (inactive) and 92 µM (inactive), respectively.

As for `NC(=O)NN=C(CS)CS`, the GI50 with U-251 is 21.6 µM (inactive); in the assay with SK-MEL-2 it was 20.8 µM (inactive); in the assay with SW-620, 28.4 µM (inactive); with SF-295, 23.7 µM (inactive); in the assay with RXF 393, 40.2 µM (inactive); with SK-MEL-5, 17 µM (inactive). The GI50 in the assay on SK-OV-3 was 89.3 µM (inactive); with SN12C it was 24.2 µM (inactive); in the assay with SK-MEL-28, 30.6 µM (inactive); in the assay with HT-29, 20.7 µM (inactive); in the assay with NCI-H23, 22.7 µM (inactive); with OVCAR-8, 27.5 µM (inactive). Moreover, the GI50 is 25.3 µM (inactive) in the assay with UACC-62; 39.1 µM (inactive) in the assay on IGROV-1; 23.7 µM (inactive) in the assay with MOLT-4; 18.8 µM (inactive) in the assay on UO-31; 0.492 µM (active) with HOP-62; 24.1 µM (inactive) in the assay on OVCAR-5. The values for the GI50 with KM12 and in the assay with CCRF-CEM were 33.2 µM (inactive) and 36.9 µM (inactive), respectively.

For the compound `O=C(NCCCCCCNC(=O)n1cc(F)c(=O)[nH]c1=O)NCCCOCCOCCCNC(=O)C(O)C(O)C(O)C(O)CO` (stereo not given), the GI50 in the assay with U-251, with SK-MEL-2, in the assay with SW-620, in the assay with SF-295, in the assay with RXF 393 and in the assay with SK-MEL-5 was > 2.5 µM (inactive) in each case. In addition, the GI50 with SK-OV-3 was > 2.5 µM (inactive); in the assay on SN12C, > 2.5 µM (inactive); in the assay with SK-MEL-28, > 2.5 µM (inactive); with HT-29, > 2.32 µM (inactive); with NCI-H23 it was > 2.5 µM (inactive); in the assay on OVCAR-8, > 2.5 µM (inactive). The GI50 is > 2.5 µM (inactive) with UACC-62; > 2.5 µM (inactive) in the assay on IGROV-1; > 2.5 µM (inactive) in the assay with MOLT-4; > 2.3 µM (inactive) in the assay with UO-31; > 2.5 µM (inactive) in the assay on HOP-62; > 2.5 µM (inactive) in the assay on OVCAR-5. The GI50 in the assay on KM12 and in the assay on CCRF-CEM was > 2.5 µM (inactive) in each case.

Consider `Nc1ncnc2c1sc1nc3ccccc3n12`, for which the GI50 in the assay on U-251 is 53.1 µM (inactive); with SK-MEL-2 it was > 100 µM (inactive); with SW-620, > 100 µM (inactive); in the assay with SF-295, > 56.2 µM (inactive); with RXF 393 it was 12.8 µM (inactive); with SK-MEL-5 it was 52 µM (inactive). In addition, the GI50 is 12.5 µM (inactive) in the assay on SK-OV-3; > 100 µM (inactive) in the assay on SN12C; > 100 µM (inactive) in the assay on SK-MEL-28; > 70.8 µM (inactive) in the assay on HT-29; > 100 µM (inactive) in the assay on NCI-H23; 60.8 µM (inactive) with OVCAR-8. Besides, the GI50 in the assay with UACC-62 is 31 µM (inactive); in the assay with IGROV-1, 13.4 µM (inactive); in the assay with MOLT-4 it was 11.8 µM (inactive); in the assay with UO-31 it was > 77.8 µM (inactive); in the assay with HOP-62, > 70.1 µM (inactive); with OVCAR-5, > 93.3 µM (inactive). The figures for the GI50 in the assay with KM12 and in the assay on CCRF-CEM were > 45 µM (inactive) and 19.8 µM (inactive), respectively.

As to `Cc1[nH]c(=O)nc(S)c1C(=O)NC1C2CCCCC2NC2CCCCC21` (stereo not given), the GI50 was 13.9 µM (inactive) in the assay with U-251; 17.4 µM (inactive) in the assay with SK-MEL-2; 18.1 µM (inactive) in the assay with SW-620; 17.2 µM (inactive) in the assay on SF-295; 13.5 µM (inactive) in the assay with RXF 393; 18.9 µM (inactive) in the assay with SK-MEL-5. Further, the GI50 in the assay on SK-OV-3 is > 10 µM (inactive); in the assay with SN12C, 19.8 µM (inactive); with SK-MEL-28 it was 11.2 µM (inactive); in the assay on HT-29, 21.4 µM (inactive); in the assay with NCI-H23 it was 14.4 µM (inactive); with OVCAR-8, 15.1 µM (inactive). The GI50 in the assay on UACC-62 is 4.09 µM (inactive); with IGROV-1 it was 15.7 µM (inactive); in the assay with MOLT-4 it was 14.3 µM (inactive); with UO-31, 13.8 µM (inactive); in the assay with HOP-62, 17.3 µM (inactive); in the assay on OVCAR-5, 18.4 µM (inactive). The GI50 with KM12 is 16.1 µM (inactive); with CCRF-CEM, 14.8 µM (inactive).

`CC(=O)NC(Cc1ccsc1)C(=O)O` (stereo not given): the GI50 in the assay on U-251 was > 100 µM (inactive); with SK-MEL-2 it was > 100 µM (inactive); in the assay with SW-620, > 100 µM (inactive); with SF-295, > 62.2 µM (inactive); with RXF 393, > 100 µM (inactive); in the assay on SK-MEL-5 it was > 100 µM (inactive). Further, the GI50 with SK-OV-3, in the assay with SN12C, in the assay on SK-MEL-28, in the assay with HT-29, in the assay on NCI-H23 and in the assay with OVCAR-8 was > 100 µM (inactive) each time. For the same compound, the GI50 in the assay with UACC-62, with IGROV-1, in the assay with MOLT-4, in the assay on UO-31, in the assay with HOP-62 and with OVCAR-5 was > 100 µM (inactive) throughout. Also, the GI50 with KM12 and in the assay with CCRF-CEM was > 100 µM (inactive) in each case.

Take `COc1cc(/N=N\c2cccc(S(=O)(=O)O)c2)c(C)cc1/N=N\c1ccc(/C=C/c2ccc(/N=[N+](/[O-])c3ccc(/C=C/c4ccc(/N=N\c5cc(C)c(/N=N/c6cccc(S(=O)(=O)O)c6)cc5OC)cc4)c(S(=O)(=O)O)c3)cc2S(=O)(=O)O)cc1`: the GI50 in the assay with U-251, with SK-MEL-2, in the assay on SW-620, in the assay with SF-295, with RXF 393 and with SK-MEL-5 was > 100 µM (inactive) in each case. Moreover, the GI50 in the assay with SK-OV-3, with SN12C, with SK-MEL-28, in the assay with HT-29, with NCI-H23 and with OVCAR-8 was > 100 µM (inactive) each time. Also, the GI50 is > 100 µM (inactive) with UACC-62; > 100 µM (inactive) in the assay on IGROV-1; > 100 µM (inactive) with MOLT-4; > 100 µM (inactive) with UO-31; > 100 µM (inactive) in the assay on HOP-62; > 84.5 µM (inactive) in the assay on OVCAR-5. Further, the GI50 with KM12 and with CCRF-CEM was > 100 µM (inactive) each time.

(Values after ChEMBL document CHEMBL1201862, “PubChem BioAssay data set” (2004).)
